# Laboratory results from patent publication EP1096933B1, “USE OF AN INHIBITOR OF CYTOCHROME P450 OPTIONALLY COMBINED WITH AN ANTIFUNGAL AGENT FOR TREATING MYCOSES” (priority 1998, dated 2000).
# Where two headings read alike, the source gives them in different places.
# Legend:
# Experiment in all cases: growth of strains streaked on Sabouraud agar containing the products
# Type in all cases: cell-based
# Epidermophyton floccosum = conditions: Epid.Flocosum, read-out: % DE CROISSANCE
# Method: (§1) Ces molécules ont été incorporées dans un milieu gélosé dit de Sabouraud (peptone 10g/l, glucose 10 g/l, gomme agar 15 g/l).
# (§2) Des souches de diverses espèces de champignons ont été ensemencées par stries par la méthode de Stires.
# (§3) Le pourcentage de croissance a été mesuré au cours du temps, pour des périodes allant jusqu'à 21 jours, pour certaines des souches testées.
# (§4) Les quantités de pipéronyl butoxyde, et de cyclopyroxolamine utilisées sont identiques et sont de 10 ou 20 µg/ml dans le cas de l'association entre ces deux composés.
# (§5) Dans le cas de l'association entre le pipéronyl butoxyde et l'éconazole, elles sont respectivement de 10 ou 20 µg/ml de pipéronyl butoxyde et de 1 µg/ml d'éconazole.
# (§6) Des souches appartenant aux espèces suivantes ont été testées: Microsporum canis, Trichophyton rubrum, Trichophyton interdigitale, Trichophyton mentagrophytes, Microsporum persicolor, Epidermophyton floccosum, Trichophyton violaceum et Trichophyton soudanense.
# (§7) L'activité du pipéronyl butoxyde seul a été testée à diverses concentrations, comme indiqué dans le tableau 1 sur le milieu de Sabouraud, dépourvu de tout autre fongicide.
# [1] = system: Trichophyton interdigitale; conditions: Tric.Interdigitale, read-out: % DE CROISSANCE
# Method: as §1, §2, §3, §4, §5, §6, §7
# Microsporum canis = conditions: Micro. Canis, read-out: % DE CROISSANCE
# Method: as §1, §2, §3, §4, §5, §6, §7
# [2] = system: Trichophyton mentagrophytes; conditions: Tric.Mentagophytes, read-out: % DE CROISSANCE
# Method: as §1, §2, §3, §4, §5, §6, §7
# Trichophyton soudanense = conditions: Tric.Soudanese, read-out: % DE CROISSANCE
# Method: as §1, §2, §3, §4, §5, §6, §7
# Trichophyton rubrum = conditions: Tric.Rubrum, read-out: % DE CROISSANCE
# Method: as §1, §2, §3, §4, §5, §6, §7
# Microsporum persicolor = conditions: Nannizzia persicolor, Micro.Persicolor, Econazole 1µg/ml, read-out: % DE CROISSANCE
# Method: as §1, §2, §3, §4, §5, §6, §7
# Trichophyton violaceum = conditions: Tric.Violaceum, read-out: % DE CROISSANCE
# Method: as §1, §2, §3, §4, §5, §6, §7
compound,measurement,setting,value
"Clc1ccc(COC(Cn2ccnc2)c2ccc(Cl)cc2Cl)cc1 (stereo not shown) [Econazole, éconazole]",activity at 1 µg/mL,"Epidermophyton floccosum; 0 h, J0, Econazole 1µg/ml",0%
same,activity at 1 µg/mL,"Epidermophyton floccosum; 96 h, J4, Econazole 1µg/ml",0%
same,activity at 1 µg/mL,"Epidermophyton floccosum; 144 h, J6, Econazole 1µg/ml",0%
same,activity at 1 µg/mL,"Epidermophyton floccosum; 240 h, J10, Econazole 1µg/ml",5%
same,activity at 1 µg/mL,"Epidermophyton floccosum; 336 h, J14, Econazole 1µg/ml",10%
same,activity at 1 µg/mL,"[1]; 0 h, J0, Econazole 1µg/ml",0%
same,activity at 1 µg/mL,"[1]; 96 h, J4, Econazole 1µg/ml",5%
same,activity at 1 µg/mL,"[1]; 144 h, J6, Econazole 1µg/ml",5%
same,activity at 1 µg/mL,"[1]; 240 h, J10, Econazole 1µg/ml",40%
same,activity at 1 µg/mL,"[1]; 336 h, J14, Econazole 1µg/ml",60%
same,activity at 1 µg/mL,"Microsporum canis; 0 h, J0, Econazole 1µg/ml",0%
same,activity at 1 µg/mL,"Microsporum canis; 96 h, J4, Econazole 1µg/ml",0%
same,activity at 1 µg/mL,"Microsporum canis; 144 h, J6, Econazole 1µg/ml",10%
same,activity at 1 µg/mL,"Microsporum canis; 240 h, J10, Econazole 1µg/ml",40%
same,activity at 1 µg/mL,"Microsporum canis; 336 h, J14, Econazole 1µg/ml",80%
same,activity at 1 µg/mL,"[2]; 0 h, J0, Econazole 1µg/ml",0%
same,activity at 1 µg/mL,"[2]; 96 h, J4, Econazole 1µg/ml",5%
same,activity at 1 µg/mL,"[2]; 144 h, J6, Econazole 1µg/ml",10%
same,activity at 1 µg/mL,"[2]; 240 h, J10, Econazole 1µg/ml",30%
same,activity at 1 µg/mL,"[2]; 336 h, J14, Econazole 1µg/ml",40%
same,activity at 1 µg/mL,"Trichophyton soudanense; 0 h, J0, Econazole 1µg/ml",0%
same,activity at 1 µg/mL,"Trichophyton soudanense; 96 h, J4, Econazole 1µg/ml",0%
same,activity at 1 µg/mL,"Trichophyton soudanense; 144 h, J6, Econazole 1µg/ml",0%
same,activity at 1 µg/mL,"Trichophyton soudanense; 240 h, J10, Econazole 1µg/ml",30%
same,activity at 1 µg/mL,"Trichophyton soudanense; 336 h, J14, Econazole 1µg/ml",60%
same,activity at 1 µg/mL,"Trichophyton rubrum; 0 h, J0, Econazole 1µg/ml",0%
same,activity at 1 µg/mL,"Trichophyton rubrum; 96 h, J4, Econazole 1µg/ml",0%
same,activity at 1 µg/mL,"Trichophyton rubrum; 144 h, J6, Econazole 1µg/ml",20%
same,activity at 1 µg/mL,"Trichophyton rubrum; 240 h, J10, Econazole 1µg/ml",60%
same,activity at 1 µg/mL,"Trichophyton rubrum; 336 h, J14, Econazole 1µg/ml",70%
same,activity at 1 µg/mL,"Microsporum persicolor; 0 h, J0",0%
same,activity at 1 µg/mL,"Microsporum persicolor; 96 h, J4",0%
same,activity at 1 µg/mL,"Microsporum persicolor; 144 h, J6",0%
same,activity at 1 µg/mL,"Microsporum persicolor; 240 h, J10",15%
same,activity at 1 µg/mL,"Microsporum persicolor; 336 h, J14",50%
same,activity at 1 µg/mL,"Trichophyton violaceum; 0 h, J0, Econazole 1µg/ml",0%
same,activity at 1 µg/mL,"Trichophyton violaceum; 96 h, J4, Econazole 1µg/ml",0%
same,activity at 1 µg/mL,"Trichophyton violaceum; 144 h, J6, Econazole 1µg/ml",40%
same,activity at 1 µg/mL,"Trichophyton violaceum; 240 h, J10, Econazole 1µg/ml",60%
same,activity at 1 µg/mL,"Trichophyton violaceum; 336 h, J14, Econazole 1µg/ml",100%
